According to patent publication US20240299359A1, “PHARMACEUTICAL COMPOSITION FOR ANIMALS CONTAINING 5-HYDROXY-METHYLIMIDAZOLIDINE-2,4-DIONE COMPOUND AS ACTIVE INGREDIENT” (KYONGBO PHARM. CO., LTD., priority 2021, published 2024):
Several values for one entry are separate records, joined by “and”; a condition that tells them apart may be missing. Equal entries are not always repeated.

System: beagles
Experiment: 13-week repeated oral toxicity: hematological test
Type: in vivo, beagle
Experimental: Fasting was conducted the day before administration (blood test date, pre), the 4th week (day 29) after administration, the 8th week (day 57) after administration, and the 13th week (day 92) after administration, and when the remaining feed was present in the feed container 3 hours after feeding on the day of fasting, it was removed.
All subjects were fasted for 16 hours and measurements were then performed pre (before administration), 4 weeks (day 29) after administration, 8 weeks (day 57) after administration, and 13 weeks (day 92) after administration. Within 3 hours after 2 to 3 ml of blood collected from the jugular vein of each subject was injected into a CBC bottle containing EDTA, RBC, HGB, HCT, RBC indices (MCV, MCH, MCHC), and platelet count and WBC differential count were measured using an automatic hematometer.

[1] = G2 200 mg/kg group, female (F4-F6, Mean), before administration (day 0)
[2] = G2 200 mg/kg group, female (F4-F6, Mean), before administration (day 0), mean
[3] = G2 200 mg/kg group, male (M4-M6, Mean), before administration (day 0)
[4] = G2 200 mg/kg group, male (M4-M6, Mean), before administration (day 0), mean
[5] = G2 200 mg/kg, repeated administration for 13 weeks, female, group mean
[6] = G2 200 mg/kg, repeated administration for 13 weeks, female, individual animals
[7] = G2 200 mg/kg, repeated administration for 13 weeks, male, group mean
[8] = G2 200 mg/kg, repeated administration for 13 weeks, male, individual animals
[9] = G3 500 mg/kg group, female (F7-F9, Mean), before administration (day 0)
[10] = G3 500 mg/kg group, female (F7-F9, Mean), before administration (day 0), mean
[11] = G3 500 mg/kg group, male (M7-M9, Mean), before administration (day 0)
[12] = G3 500 mg/kg group, male (M7-M9, Mean), before administration (day 0), mean
[13] = G3 500 mg/kg, repeated administration for 13 weeks, female, group mean

`CN1C(=O)NC(=O)C1O` (stereo not drawn) [KBP-001, 5-hydroxy-1-methylimidazolidine-2,4-dione] was tested, and the HCT [1] was 47.0% and 49.6% and 51.3%, the HGB [1] was 15. g/dl and 16.7 g/dl and 17.5 g/dl and the MCH [1] was 22.5 pg and 22.6 pg and 22.7 pg. The MCHC [1] was 33.8 g/dL and 33.6 g/dL and 34.1 g/dL, the MCV [1] was 66.6 fL and 67.3 fL and 66.7 fL and the Retic [1] was 0.77% and 1.34% and 1.01%. The “WBC Differential Counting Baso” value [1] was 1.0% (2×) and 0.8%, the “WBC Differential Counting Eos” value [1] was 7.3% and 5.5% and 4.5% and the “WBC Differential Counting Lymph” value [1] was 30.0% and 20.55% and 30.2%. The “WBC Differential Counting Mono” value [1] was 5.7% and 6.2% and 6.1%, the “WBC Differential Counting Neut” value [1] was 55.5% and 66.3% and 57.6% and the HCT [2] was 49.30%. For the same compound, the HGB [2] was 16.70 g/dL, the MCH [2] was 22.6 pg and the MCHC [2] was 33.83 g/dL. For the same compound, the MCV [2] was 66.9 fL, the Retic [2] was 1.04% and the “WBC Differential Counting Baso” value [2] was 0.93%. The “WBC Differential Counting Eos” value [2] was 5.77%, the “WBC Differential Counting Lymph” value [2] was 27.00% and the “WBC Differential Counting Mono” value [2] was 6.00%. The “WBC Differential Counting Neut” value [2] was 59.80%, the HCT [3] was 48.1% and 48.8% and 45.2% and the HGB [3] was 16.0 g/dL and 15.2 g/dL. The MCH [3] was 22.2 pg and 21.7 pg and 21 pg, the MCHC [3] was 33.3 g/dL and 32.9 g/dL and 33.7 g/dL and the MCV [3] was 66.8 fL and 66.1 fL and 62.3 fL. The Retic [3] was 1.21% and 1.16% and 1.11%, the “WBC Differential Counting Baso” value [3] was 1.0% and 0.9% and 0.8% and the “WBC Differential Counting Eos” value [3] was 3.5% and 4.7% and 6.4%. The “WBC Differential Counting Lymph” value [3] was 40.5% and 29.4% and 23.2%, the “WBC Differential Counting Mono” value [3] was 4.7% and 8.3% and 6.0% and the “WBC Differential Counting Neut” value [3] was 49.6% and 56.2% and 63.3%. The HCT [4] was 47.37%, the HGB [4] was 15.73 g/dL and the MCH [4] was 21.6 pg. For the same compound, the MCHC [4] was 33.30 g/dL, the MCV [4] was 65.1 fL and the “WBC Differential Counting Baso” value [4] was 0.90%. The “WBC Differential Counting Eos” value [4] was 4.87%, the “WBC Differential Counting Lymph” value [4] was 31.03% and the “WBC Differential Counting Mono” value [4] was 6.33%. For the same compound, the “WBC Differential Counting Neut” value [4] was 56.37%, the HGB [5] was 15.77 g/dL and the MCH [5] was 22.9 pg. The MCHC [5] was 33.80 g/dL, the MCV [5] was 67.9 fL and the Retic [5] was 0.41%. The “WBC Differential Counting(%) Baso” value [5] was 0.77%, the “WBC Differential Counting(%) Eos” value [5] was 8.10% and the “WBC Differential Counting(%) Lymph” value [5] was 28.50%. For the same compound, the “WBC Differential Counting(%) Mono” value [5] was 5.30%, the “WBC Differential Counting(%) Neut” value [5] was 56.90% and the HCT [6] was 45.3% and 47.7% and 46.9%. For the same compound, the HGB [6] was 15.3 g/dl and 16.0 g/dl (2×), the MCHC [6] was 33.7 g/dL and 33.6 g/dL and 34.1 g/dL and the MCV [6] was 67.2 fL and 68.8 fL and 67.5 fL. For the same compound, the Retic [6] was 0.25% and 0.42% and 0.55%, the “WBC Differential Counting(%) Baso” value [6] was 0.8% (2×) and 0.7% and the “WBC Differential Counting(%) Eos” value [6] was 8.1% and 7.4% and 8.8%. For the same compound, the “WBC Differential Counting(%) Lymph” value [6] was 25.1% and 33.4% and 27.0%, the “WBC Differential Counting(%) Mono” value [6] was 5.3% and 5.0% and 5.6% and the “WBC Differential Counting(%) Neut” value [6] was 60.2% and 53.1% and 57.4%. For the same compound, the HCT [7] was 46.43%, the HGB [7] was 15.53 g/dL and the MCH [7] was 22.2 pg. The MCHC [7] was 33.40 g/dL, the MCV [7] was 66.4 fL and the Retic [7] was 0.50%. For the same compound, the “WBC Differential Counting(%) Baso” value [7] was 0.67%, the “WBC Differential Counting(%) Eos” value [7] was 6.23% and the “WBC Differential Counting(%) Lymph” value [7] was 31.10%. For the same compound, the “WBC Differential Counting(%) Mono” value [7] was 6.47%, the “WBC Differential Counting(%) Neut” value [7] was 55.10% and the HCT [8] was 43.8% and 47.0% and 48.5%. The HGB [8] was 14.4 g/dL and 15.8 g/dL and 16.4 g/dL, the MCH [8] was 22 pg and 22.8 pg and 21.8 pg and the MCHC [8] was 32.9 g/dL and 33.5 g/dL and 33.8 g/dL. The MCV [8] was 66.8 fL and 67.9 fL and 64.5 fL, the Retic [8] was 0.45% and 0.59% and 0.46% and the “WBC Differential Counting(%) Baso” value [8] was 0.8% and 0.7% and 0.5%. For the same compound, the “WBC Differential Counting(%) Eos” value [8] was 6.8% and 5.3% and 6.6%, the “WBC Differential Counting(%) Lymph” value [8] was 35.9% and 32.7% and 24.7% and the “WBC Differential Counting(%) Mono” value [8] was 6.1% and 7.5% and 5.8%. For the same compound, the “WBC Differential Counting(%) Neut” value [8] was 50.0% and 53.4% and 61.9%, the HCT [9] was 44.4% and 50.3% and 47.5% and the HGB [9] was 14.6 g/dL and 16.9 g/dL and 15.9 g/dL. For the same compound, the MCH [9] was 22.5 pg and 22.2 pg and 22.1 pg, the MCHC [9] was 33.0 g/dL and 33.5 g/dL and the MCV [9] was 68.3 fL and 66.4 fL and 66.2 fL. The Retic [9] was 0.61% and 0.91% and 1.01%, the “WBC Differential Counting Baso” value [9] was 0.6% and 1.5% and 0.4% and the “WBC Differential Counting Eos” value [9] was 3.4% and 1.1% and 3.7%. For the same compound, the “WBC Differential Counting Lymph” value [9] was 42.0% and 44.2% and 28.3%, the “WBC Differential Counting Mono” value [9] was 4.9% and 3.7% and 5.9% and the HCT [10] was 47.40%. For the same compound, the HGB [10] was 15.80 g/dL, the MCH [10] was 22.3 pg and the MCHC [10] was 33.33 g/dL. For the same compound, the MCV [10] was 67 fL, the Retic [10] was 0.84% and the “WBC Differential Counting Baso” value [10] was 0.83%. For the same compound, the “WBC Differential Counting Eos” value [10] was 2.73%, the “WBC Differential Counting Lymph” value [10] was 38.17% and the “WBC Differential Counting Mono” value [10] was 4.83%. For the same compound, the HCT [11] was 44.8% and 43.0% and 52.1%, the HGB [11] was 15.0 g/dL and 13.8 g/dL and 17.4 g/dL and the MCH [11] was 23 pg and 22.3 pg and 22.9 pg. For the same compound, the MCHC [11] was 33.4 g/dL and 32.1 g/dL, the MCV [11] was 68 fL and 69.4 fL and 68.7 fL and the Retic [11] was 0.60% and 0.46% and 0.84%. The “WBC Differential Counting Baso” value [11] was 0.4% and 0.8% and 1.1%, the “WBC Differential Counting Eos” value [11] was 2.6% and 8.5% and 2.9% and the “WBC Differential Counting Lymph” value [11] was 36.0% and 33.1% and 36.7%. For the same compound, the “WBC Differential Counting Mono” value [11] was 5.9% and 7.8% and 5.8%, the “WBC Differential Counting Neut” value [11] was 54.8% and 49.4% and 53.0% and the HCT [12] was 46.63%. It also gave an HGB [12] of 15.40 g/dL, an MCH [12] of 22.7 pg and an MCHC [12] of 32.97 g/dL. For the same compound, the MCV [12] was 69 fL, the Retic [12] was 0.63% and the “WBC Differential Counting Baso” value [12] was 0.77%. The “WBC Differential Counting Eos” value [12] was 4.67%, the “WBC Differential Counting Lymph” value [12] was 35.27% and the “WBC Differential Counting Mono” value [12] was 6.50%. For the same compound, the “WBC Differential Counting Neut” value [12] was 52.40%, the HCT [13] was 48.00% and the HGB [13] was 16.00 g/dL.
